From patent publication US20230065437A1, “ACIDIZING OF SUBTERRANEAN FORMATIONS WITH PLACEMENT OF SCALE INHIBITOR” (priority 2021, published 2023)
Values after ≈ are worked out from the molar mass of the structure shown.

Tests used:
[1] = cited from earlier work
[2] = Solubility of PMIDA in water and HCl at various temperatures and pressures; format: physicochemical; conditions: for solubility thermodynamic: aqueous buffer, thermodynamic from solid
From the text: In certain embodiments, the organophosphorous compound comprising a phosphonoalkyl moiety is at least partially solubilized in the acid component. As used herein, the term “at least partially solubilized,” and grammatical variants thereof, with reference to the organophosphorous compound comprising a phosphonoalkyl moiety in the acid component refers to dissolution of at least about 2% weight per volume (w/v) of the organophosphorous compound comprising a phosphonoalkyl moiety in the acid component at room temperature. As used herein, the term “room temperature” refers to about 15° C. to about 25° C. The remaining excess organophosphorous compound comprising a phosphonoalkyl moiety may be suspended in the acid component while it is undergoing dynamic fluid flow at room temperature. As temperatures increase (e.g., as the treatment fluid is introduced into a subterranean formation and encounters downhole temperatures), the solubility of the organophosphorous compound comprising a phosphonoalkyl moiety in the acid component may increase. Indeed, the solubility of the organophosphorous compound comprising a phosphonoalkyl moiety increases as a function of acid concentration, and temperature.

| Compound | pKa values [1] | solubility thermodynamic ([2]; 7.5% HCl, 37.8 °C, Atm., 100° F.) [mg/mL] | solubility thermodynamic ([2]; 7.5% HCl, 65.6 °C, Atm., 150° F.) [mg/mL] | solubility thermodynamic ([2]; 10% HCl, 37.8 °C, Atm., 100° F.) [mg/mL] | solubility thermodynamic ([2]; 10% HCl, 65.6 °C, Atm., 150° F.) [mg/mL] | solubility thermodynamic ([2]; 10% HCl, 93.3 °C, Atm., 200° F.) [mg/mL] | solubility thermodynamic ([2]; 15% HCl, 37.8 °C, 200 psi, 100° F.) [mg/mL] | solubility thermodynamic ([2]; 15% HCl, 37.8 °C, Atm., 100° F.) [mg/mL] | solubility thermodynamic ([2]; 15% HCl, 65.6 °C, 200 psi, 150° F.) [mg/mL] | solubility thermodynamic ([2]; 15% HCl, 65.6 °C, Atm., 150° F.) [mg/mL] | solubility thermodynamic ([2]; 15% HCl, 93.3 °C, 200 psi, 200° F.) [mg/mL] | solubility thermodynamic ([2]; 15% HCl, 93.3 °C, Atm., 200° F.) [mg/mL] | Solubility Average ([2]; Atm., 7.5% HCl, 200° F.) [w/v %] |
| --- | --- | --- | --- | --- | --- | --- | --- | --- | --- | --- | --- | --- | --- |
| O=C(O)CN(CCO)CC(=O)O [HEIDA, N-(2-hydroxyethyl)iminodiacetic acid] | about 2.2 | – | – | – | – | – | – | – | – | – | – | – | – |
| O=C([O-])CC(NC(C(=O)[O-])C(O)C(=O)[O-])C(=O)[O-].[Na+].[Na+].[Na+].[Na+] (centres unmarked) [HIDS, tetrasodium 3-hydroxy-2,2′-iminodisuccinate] | about 2.83 | – | – | – | – | – | – | – | – | – | – | – | – |
| O=C(O)CN(CC(=O)O)CP(=O)(O)O [PMIDA, N-(phosphonomethyl)iminodiacetic acid] | – | 17.4 (≈ 76.6 mM) | 39.7 (≈ 175 mM) | 20 (≈ 88.1 mM) | 49.1 (≈ 216 mM) | 101 (≈ 445 mM) | 41.1 (≈ 181 mM) | 30.6 (≈ 135 mM) | 95.7 (≈ 421 mM) | 72.2 (≈ 318 mM) | 203 (≈ 896 mM) | 166 (≈ 731 mM) | 10.00 |
